{
  "source": "paper PMC8698302",
  "about": "“An Antibacterial Peptide with High Resistance to Trypsin Obtained by Substituting D-Amino Acids for Trypsin Cleavage Sites” (Antibiotics, 2021)",
  "experiment_in_all_cases": "Antimicrobial susceptibility test of clinical isolated strains",
  "assay_type_in_all_cases": "cell-based",
  "key": {"[1]": {"tested_on": "Escherichia coli QY", "settings": "for MIC: Escherichia coli, antibiotic susceptibility, CLSI 2015 guidelines, read-out: MIC; for Antimicrobial susceptibility test result (category): according to CLSI 2015 guidelines", "experimental": "(§1) Table S1. Antimicrobial susceptibility test of clinical isolated strains used in this study (MIC, μg/mL).\n(§2) 1Antimicrobial susceptibility test results were determined according to CLSI 2015 guidelines, where \"R\" stands for drug resistance,\n(§3) \"I\" stands for intermediate, \"S\" stands for susceptible. […]"}, "[2]": {"tested_on": "Escherichia coli S1N1", "settings": "for MIC: Escherichia coli, S1N1, antibiotic susceptibility, CLSI 2015 guidelines, read-out: MIC; for Antimicrobial susceptibility test result (category): according to CLSI 2015 guidelines", "experimental": "as §1, §2, §3"}, "[3]": {"tested_on": "Escherichia coli SN5", "settings": "for MIC: Escherichia coli, SN5, antibiotic susceptibility, CLSI 2015 guidelines, read-out: MIC; for Antimicrobial susceptibility test result (category): according to CLSI 2015 guidelines", "experimental": "as §1, §2, §3"}, "[4]": {"tested_on": "Escherichia coli w122", "settings": "for MIC: Escherichia coli, W122, antibiotic susceptibility, CLSI 2015 guidelines, read-out: MIC; for Antimicrobial susceptibility test result (category): according to CLSI 2015 guidelines", "experimental": "as §1, §2, §3"}, "[5]": {"tested_on": "Escherichia coli w123", "settings": "for MIC: Escherichia coli, W123, antibiotic susceptibility, CLSI 2015 guidelines, read-out: MIC; for Antimicrobial susceptibility test result (category): according to CLSI 2015 guidelines", "experimental": "as §1, §2, §3"}, "[6]": {"tested_on": "Methicillin-resistant Staphylococcus aureus HP", "settings": "for MIC: Staphylococcus aureus, antibiotic susceptibility, CLSI 2015 guidelines; for Antimicrobial susceptibility test result (category): according to CLSI 2015 guidelines", "experimental": "as §1, §2, §3"}, "[7]": {"tested_on": "Shigella flexneri QY1", "settings": "for MIC: Shigella flexneri, QY1; for Antimicrobial susceptibility test result (category): according to CLSI 2015 guidelines", "experimental": "as §1, §2, §3"}, "[8]": {"tested_on": "Escherichia coli w124", "settings": "for MIC: Escherichia coli, W124, antibiotic susceptibility, CLSI 2015 guidelines, read-out: MIC; for Antimicrobial susceptibility test result (category): according to CLSI 2015 guidelines", "source_text": "as §1, §3"}, "[9]": {"tested_on": "Escherichia coli w136", "settings": "for MIC: Escherichia coli, W136, antibiotic susceptibility, CLSI 2015 guidelines, read-out: MIC; for Antimicrobial susceptibility test result (category): according to CLSI 2015 guidelines", "source_text": "as §1, §3"}},
  "data": [
    {"smiles": "CC[C@H]1OC(=O)[C@H](C)[C@@H](O[C@H]2C[C@@](C)(OC)[C@@H](O)[C@H](C)O2)[C@H](C)[C@@H](O[C@@H]2O[C@H](C)C[C@H](N(C)C)[C@H]2O)[C@](C)(O)C[C@@H](C)CN(C)[C@H](C)[C@@H](O)[C@]1(C)O", "note": "[Azithromycin]", "values": [
      {"measurement": "MIC", "setting": "[1]", "value": 8, "unit": "µg/mL"},
      {"measurement": "Antimicrobial susceptibility test result (category)", "setting": "[1]", "value": "S"},
      {"measurement": "MIC", "setting": "[2]", "value": 4, "unit": "µg/mL"},
      {"measurement": "Antimicrobial susceptibility test result (category)", "setting": "[2]", "value": "S"},
      {"measurement": "MIC", "setting": "[3]", "value": 4, "unit": "µg/mL"},
      {"measurement": "Antimicrobial susceptibility test result (category)", "setting": "[3]", "value": "S"},
      {"measurement": "MIC", "setting": "[4]", "value": 4, "unit": "µg/mL"},
      {"measurement": "Antimicrobial susceptibility test result (category)", "setting": "[4]", "value": "S"},
      {"measurement": "MIC", "setting": "[5]", "value": 4, "unit": "µg/mL"},
      {"measurement": "Antimicrobial susceptibility test result (category)", "setting": "[5]", "value": "S"},
      {"measurement": "MIC", "setting": "[6]", "value": 1, "unit": "µg/mL"},
      {"measurement": "Antimicrobial susceptibility test result (category)", "setting": "[6]", "value": "S"},
      {"measurement": "MIC", "setting": "[7]", "value": 64, "unit": "µg/mL"},
      {"measurement": "Antimicrobial susceptibility test result (category)", "setting": "[7]", "value": "R"},
      {"measurement": "MIC", "setting": "[8]", "value": 4, "unit": "µg/mL"},
      {"measurement": "Antimicrobial susceptibility test result (category)", "setting": "[8]", "value": "S"},
      {"measurement": "MIC", "setting": "[9]", "value": 2, "unit": "µg/mL"},
      {"measurement": "Antimicrobial susceptibility test result (category)", "setting": "[9]", "value": "S"}
    ]},
    {"smiles": "CO/N=C(\\C(=O)N[C@@H]1C(=O)N2C(C(=O)O)=C(CSc3nc(=O)c(=O)[nH]n3C)CS[C@H]12)c1csc(N)n1", "note": "[Ceftriaxone]", "values": [
      {"measurement": "MIC", "setting": "[1]", "value": 64, "unit": "µg/mL"},
      {"measurement": "Antimicrobial susceptibility test result (category)", "setting": "[1]", "value": "R"},
      {"measurement": "MIC", "setting": "[2]", "value": 16, "unit": "µg/mL"},
      {"measurement": "Antimicrobial susceptibility test result (category)", "setting": "[2]", "value": "R"},
      {"measurement": "MIC", "setting": "[3]", "value": 16, "unit": "µg/mL"},
      {"measurement": "Antimicrobial susceptibility test result (category)", "setting": "[3]", "value": "R"},
      {"measurement": "MIC", "setting": "[4]", "value": 32, "unit": "µg/mL"},
      {"measurement": "Antimicrobial susceptibility test result (category)", "setting": "[4]", "value": "R"},
      {"measurement": "MIC", "setting": "[5]", "value": 32, "unit": "µg/mL"},
      {"measurement": "Antimicrobial susceptibility test result (category)", "setting": "[5]", "value": "R"},
      {"measurement": "MIC", "setting": "[7]", "value": 4, "unit": "µg/mL"},
      {"measurement": "Antimicrobial susceptibility test result (category)", "setting": "[7]", "value": "R"},
      {"measurement": "MIC", "setting": "[8]", "value": 4, "unit": "µg/mL"},
      {"measurement": "Antimicrobial susceptibility test result (category)", "setting": "[8]", "value": "R"},
      {"measurement": "MIC", "setting": "[9]", "value": 0.06, "unit": "µg/mL"},
      {"measurement": "Antimicrobial susceptibility test result (category)", "setting": "[9]", "value": "S"}
    ]},
    {"smiles": "CS(=O)(=O)c1ccc([C@@H](O)[C@@H](CF)NC(=O)C(Cl)Cl)cc1", "note": "[Florfenicol]", "values": [
      {"measurement": "MIC", "setting": "[1]", "value": 128, "unit": "µg/mL"},
      {"measurement": "Antimicrobial susceptibility test result (category)", "setting": "[1]", "value": "R"},
      {"measurement": "MIC", "setting": "[2]", "value": 2, "unit": "µg/mL"},
      {"measurement": "Antimicrobial susceptibility test result (category)", "setting": "[2]", "value": "S"},
      {"measurement": "MIC", "setting": "[3]", "value": 4, "unit": "µg/mL"},
      {"measurement": "Antimicrobial susceptibility test result (category)", "setting": "[3]", "value": "S"},
      {"measurement": "MIC", "setting": "[4]", "value": 128, "unit": "µg/mL"},
      {"measurement": "Antimicrobial susceptibility test result (category)", "setting": "[4]", "value": "R"},
      {"measurement": "MIC", "setting": "[5]", "value": 128, "unit": "µg/mL"},
      {"measurement": "Antimicrobial susceptibility test result (category)", "setting": "[5]", "value": "R"},
      {"measurement": "MIC", "setting": "[7]", "value": 2, "unit": "µg/mL"},
      {"measurement": "Antimicrobial susceptibility test result (category)", "setting": "[7]", "value": "S"},
      {"measurement": "MIC", "setting": "[8]", "value": 128, "unit": "µg/mL"},
      {"measurement": "Antimicrobial susceptibility test result (category)", "setting": "[8]", "value": "R"},
      {"measurement": "MIC", "setting": "[9]", "value": 128, "unit": "µg/mL"},
      {"measurement": "Antimicrobial susceptibility test result (category)", "setting": "[9]", "value": "R"}
    ]},
    {"smiles": "CNC(C)C1CCC(N)C(OC2C(N)CC(N)C(OC3OCC(C)(O)C(NC)C3O)C2O)O1", "note": "(centres unmarked) [Gentamicin]", "values": [
      {"measurement": "MIC", "setting": "[1]", "value": "> 512", "unit": "µg/mL"},
      {"measurement": "Antimicrobial susceptibility test result (category)", "setting": "[1]", "value": "R"},
      {"measurement": "MIC", "setting": "[2]", "value": "< 0.03", "unit": "µg/mL"},
      {"measurement": "Antimicrobial susceptibility test result (category)", "setting": "[2]", "value": "S"},
      {"measurement": "MIC", "setting": "[3]", "value": "< 0.03", "unit": "µg/mL"},
      {"measurement": "Antimicrobial susceptibility test result (category)", "setting": "[3]", "value": "S"},
      {"measurement": "MIC", "setting": "[4]", "value": 1, "unit": "µg/mL"},
      {"measurement": "Antimicrobial susceptibility test result (category)", "setting": "[4]", "value": "S"},
      {"measurement": "MIC", "setting": "[5]", "value": 1, "unit": "µg/mL"},
      {"measurement": "Antimicrobial susceptibility test result (category)", "setting": "[5]", "value": "S"},
      {"measurement": "MIC", "setting": "[6]", "value": 16, "unit": "µg/mL"},
      {"measurement": "Antimicrobial susceptibility test result (category)", "setting": "[6]", "value": "R"},
      {"measurement": "MIC", "setting": "[7]", "value": 1, "unit": "µg/mL"},
      {"measurement": "Antimicrobial susceptibility test result (category)", "setting": "[7]", "value": "S"},
      {"measurement": "MIC", "setting": "[8]", "value": 8, "unit": "µg/mL"},
      {"measurement": "Antimicrobial susceptibility test result (category)", "setting": "[8]", "value": "I"},
      {"measurement": "MIC", "setting": "[9]", "value": 8, "unit": "µg/mL"},
      {"measurement": "Antimicrobial susceptibility test result (category)", "setting": "[9]", "value": "I"}
    ]}
  ]
}
